Measurements taken from paper PMC5147005 (The Journal of Cell Biology, 2016).

T1: MFN1-MGD (minimal GTPase domain of human MFN1) (Homo sapiens, UniProt Q8IWA4, DEL365-693)
T1 sequence (Q8IWA4 1-364): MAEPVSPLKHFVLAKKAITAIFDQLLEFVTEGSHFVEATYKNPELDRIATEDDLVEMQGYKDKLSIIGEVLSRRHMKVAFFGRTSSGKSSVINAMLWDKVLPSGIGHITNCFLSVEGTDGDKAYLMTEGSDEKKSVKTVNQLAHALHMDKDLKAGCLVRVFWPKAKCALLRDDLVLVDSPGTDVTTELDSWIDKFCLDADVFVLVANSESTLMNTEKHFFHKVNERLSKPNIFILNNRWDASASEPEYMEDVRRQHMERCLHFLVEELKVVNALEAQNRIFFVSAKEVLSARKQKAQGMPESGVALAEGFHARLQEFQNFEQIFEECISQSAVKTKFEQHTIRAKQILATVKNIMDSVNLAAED
T1 sequence (Q8IWA4 694-741): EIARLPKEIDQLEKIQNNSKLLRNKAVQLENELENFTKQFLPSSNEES

B1: human MFN1 minimal GTPase domain (MGD), wild type (domain or fragment)
chain: MAEPVSPLKHFVLAKKAITAIFDQLLEFVTEGSHFVEATYKNPELDRIATEDDLVEMQGYKDKLSIIGEVLSRRHMKVAFFGRTSSGKSSVINAMLWDKVLPSGIGHITNCFLSVEGTDGDKAYLMTEGSDEKKSVKTVNQLAHALHMDKDLKAGCLVRVFWPKAKCALLRDDLVLVDSPGTDVTTELDSWIDKFCLDADVFVLVANSESTLMNTEKHFFHKVNERLSKPNIFILNNRWDASASEPEYMEDVRRQHMERCLHFLVEELKVVNALEAQNRIFFVSAKEVLSARKQKAQGMPESGVALAEGFHARLQEFQNFEQIFEECISQSAVKTKFEQHTIRAKQILATVKNIMDSVNLAAEDGSGSGSGGSEIARLPKEIDQLEKIQNNSKLLRNKAVQLENELENFTKQFLPSSNEES

Tests used:
[1] = biological target: T1, MFN1-MGD (minimal GTPase domain of human MFN1); assay: isothermal titration calorimetry; format: binding
AUC = biological target: the molecule itself; assay: AUC

Molecule	Kd [1]	stoichiometry N (AUC)
Nc1nc2c(ncn2[C@@H]2O[C@H](COP(=O)(O)OP(=O)(O)O)[C@@H](O)[C@H]2O)c(=O)[nH]1 [GDP]	91.7 µM	
B1		2
